Test results from patent publication US20160281077A1, “MEDIUM AND METHOD FOR CULTURING EUGLENA AND METHOD FOR REDUCING PHOTOINHIBITION IN EUGLENA” (Euglena Co., Ltd., priority 2015, published 2016).

Assays:
Euglena gracilis Z [1] = assay: Study 3: photocurrent after addition of Euglena and of electron transport inhibitor DBMIB; assay type: cell-based; conditions: DBMIB 100 μM added after about 37 minutes to PMF 3 g/L medium with Euglena; current before about 8 μA
Protocol: To determine whether the effect of the medium supplemented with PMF in facilitating the proliferation of Euglena in electrochemical culture as shown by the Studies 1 and 2 is attributed to extracellular transfer of electrons from Euglena, DBMIB (2,5-dibromo-3-methyl-6-isopropyl-p-benzoquinone), which is an electron transport inhibitor, was added to the culture system that included PMF, and a change in photocurrent was measured.
DBMIB binds to the plastoquinone-binding site of the cytochrome b6f and prevents the oxidation of reduced plastoquinone thereby inhibiting electron transport. DBMIB inhibits the transfer of electrons from plastoquinone to the photosystem I and thus is used to measure the activity of the photosystem II.
In the Study 3, the CM medium having a PMF concentration of 3 g/L was placed into the same three-electrode electrochemical cell as the Study 1. Then, the electrochemical cell was placed into a shielded enclosure to measure the photocurrent.
After about 21 minutes from the start of the measurement, the precultured Euglena was added at an initial density (OD800) of 0.5. After about 37 minutes from the start of the measurement, DBMIB was added at a concentration of 100 μM to the medium.

Euglena gracilis Z [2] = assay: Study 2 and reference study: proliferation (cell density) of Euglena under strong or weak light; assay type: cell-based; conditions: 0.5 mM ascorbic acid in place of PMF
Protocol: The CM medium having a PMF concentration of 0.5 g/L was placed into the same three-electrode electrochemical cell as the Study 1.
To the medium, the precultured Euglena was added at an initial density (OD800) of 0.05 and electrochemically cultured under strong light having an intensity of 5000 lux, which is about one tenth of the maximum intensity of sunlight. After 0, 24, 48, 76, 96, and 148 hours from the start of the culture, the cell density was determined (Example 2). The voltage applied was +0.6 V vs. SHE.
A similar study was performed on Euglena non-electrochemically cultured in the medium that included no PMF (Comparative Example 3).
A similar study was also performed on Euglena electrochemically cultured in the medium that included PMF (Comparative Example 4) and Euglena electrochemically cultured in the medium that included no PMF (Comparative Example 5) under weak light having an intensity of 1000 lux, which is about one fiftieth of the maximum intensity of sunlight.
In the study, proliferation of Euglena that were cultured in the medium supplemented with or without 0.5 mM of ascorbic acid in place of PMF used in the Study 2 under strong light or under weak light was compared. The study was performed in the same manner as in the Study 2 except that 0.5 mM of ascorbic acid was added in place of PMF.

| Compound | current after addition of DBMIB (Euglena gracilis Z [1]) | facilitating the proliferation of Euglena under strong light (Euglena gracilis Z [2]; strong light (5000 lux)) | facilitating the proliferation of Euglena under weak light (Euglena gracilis Z [2]; weak light (1000 lux)) |
| --- | --- | --- | --- |
| CC1=C(Br)C(=O)C(C(C)C)=C(Br)C1=O [DBMIB, 2,5-dibromo-3-methyl-6-isopropyl-p-benzoquinone] | about 4 μA | – | – |
| O=C1O[C@H]([C@@H](O)CO)C(O)=C1O [ascorbic acid] | – | effective in facilitating the proliferation of Euglena | not effective in facilitating the proliferation |
